Consider 1 compound from ChEMBL document CHEMBL3865792, “Antioxidant and antitumor activity of trolox, trolox succinate, and α-tocopheryl succinate conjugates with nitroxides” (Eur J Med Chem, 2016).

System in the first series: not listed separately
Put plainly: Ratio of IC50 for human U937 cells to concentration causing antioxidant activity in Salmonella typhimurium TA102 harboring […] mutant.
Details: not given
It counts as functional, U-937.
In the case of `Cc1c(C)c2c(c(C)c1OC(=O)CCC(=O)NC1CC(C)(C)N([O])C1(C)C)CCC(C)(C(=O)NC1CC(C)(C)N([O])C1(C)C)O2` (stereo not drawn), the Ratio is recorded as 100 - 1000.

System in another series: not listed separately
Put plainly: Cytotoxicity against human HepG2 cells assessed as reduction in cell viability after 72 hrs by MTT assay. Format: functional, cell-based. Particulars: HepG2, 72 h.
As a reminder, the IC50 is the midpoint of a concentration-inhibition curve. Regarding `Cc1c(C)c2c(c(C)c1OC(=O)CCC(=O)NC1CC(C)(C)N([O])C1(C)C)CCC(C)(C(=O)NC1CC(C)(C)N([O])C1(C)C)O2` (stereo not drawn), the IC50 is greater than 300 µM.

System in a further series: not listed separately
Kind of series: Ratio of IC50 for human CEM13 cells to concentration causing antioxidant activity in Salmonella typhimurium TA102 harboring […] mutant. It counts as functional.
Details: not given
As for `Cc1c(C)c2c(c(C)c1OC(=O)CCC(=O)NC1CC(C)(C)N([O])C1(C)C)CCC(C)(C(=O)NC1CC(C)(C)N([O])C1(C)C)O2` (stereo not drawn), the Ratio was 100 - 1000.

System in the next series: not listed separately
Kind of series: Cytotoxicity against human MCF7 cells assessed as reduction in cell viability after 72 hrs by MTT assay. Particulars: MCF7, 72 h. It counts as functional, cell-based. A general note: Formazan colour is commonly taken as a measure of viable cells.
With `Cc1c(C)c2c(c(C)c1OC(=O)CCC(=O)NC1CC(C)(C)N([O])C1(C)C)CCC(C)(C(=O)NC1CC(C)(C)N([O])C1(C)C)O2` (stereo not drawn), the half-maximal inhibitory concentration (IC50) was determined as 86 µM.

System in a further series: not listed separately
Kind of series: Cytotoxicity against human CEM13 cells assessed as reduction in cell viability after 72 hrs by MTT assay. Format: functional, cell-based. The following applies: CEM13, 72 h.
For `Cc1c(C)c2c(c(C)c1OC(=O)CCC(=O)NC1CC(C)(C)N([O])C1(C)C)CCC(C)(C(=O)NC1CC(C)(C)N([O])C1(C)C)O2` (stereo not drawn), the IC50 is greater than 300 µM.

System in another series: not listed separately
Put plainly: Ratio of IC50 for human MCF7 cells to concentration causing antioxidant activity in Salmonella typhimurium TA102 harboring […] mutant. It counts as functional.
Details: not given
In the case of `Cc1c(C)c2c(c(C)c1OC(=O)CCC(=O)NC1CC(C)(C)N([O])C1(C)C)CCC(C)(C(=O)NC1CC(C)(C)N([O])C1(C)C)O2` (stereo not drawn), the Ratio was 100 - 1000.

System in a further series: not listed separately
Put plainly: Cytotoxicity against human MT4 cells assessed as reduction in cell viability after 72 hrs by MTT assay. It counts as functional, cell-based. The following applies: MT4, 72 h.
Regarding `Cc1c(C)c2c(c(C)c1OC(=O)CCC(=O)NC1CC(C)(C)N([O])C1(C)C)CCC(C)(C(=O)NC1CC(C)(C)N([O])C1(C)C)O2` (stereo not drawn), the concentration for half-maximal inhibition (IC50) turned out to be 207 µM.

The next series has as its system Salmonella enterica subsp. enterica serovar Typhimurium. Put plainly: Antioxidant activity in Salmonella typhimurium TA102 harboring […] mutant assessed as inhibition of t-BuO2H-dependant mutant formation at 30 uM preincubated with compound followed by t-BuO2H addition after 48 hrs by Ames test. Format: functional.
Details: not given
Background: The Ames test detects mutagens through reverse mutation in bacteria.
Broadly, the inhibition is how much of the control response was suppressed. On to `Cc1c(C)c2c(c(C)c1OC(=O)CCC(=O)NC1CC(C)(C)N([O])C1(C)C)CCC(C)(C(=O)NC1CC(C)(C)N([O])C1(C)C)O2` (stereo not drawn), for which the inhibition was 13%.

System in the next series: not listed separately
Kind of series: Cytotoxicity against human RPMI8226 cells assessed as reduction in cell viability after 72 hrs by MTT assay. Format: functional, cell-based. The following applies: RPMI-8226, 72 h.
On to `Cc1c(C)c2c(c(C)c1OC(=O)CCC(=O)NC1CC(C)(C)N([O])C1(C)C)CCC(C)(C(=O)NC1CC(C)(C)N([O])C1(C)C)O2` (stereo not drawn), for which the IC50 is greater than 300 µM.

System in the next series: not listed separately
Kind of series: Genotoxicity in Escherichia coli PQ37 expressing lacZ gene assessed as ratio of inducible beta-galactosidase activity to alkaline phosphatase activity at 30 mM after 2 hrs by SOS-chromotest relative to control. Format: toxicity. Particulars: Escherichia coli PQ37 cells expressing lacZ gene, read-out: FC.
In the case of `Cc1c(C)c2c(c(C)c1OC(=O)CCC(=O)NC1CC(C)(C)N([O])C1(C)C)CCC(C)(C(=O)NC1CC(C)(C)N([O])C1(C)C)O2` (stereo not drawn), the fold induction at 2 h, 30000 µM was found to be 1.1.

The subject of the next series is Salmonella enterica subsp. enterica serovar Typhimurium. Put plainly: Antioxidant activity in Salmonella typhimurium TA102 harboring […] mutant assessed as inhibition of t-BuO2H-dependant mutant formation at 3 uM preincubated with compound followed by t-BuO2H addition after 48 hrs by Ames test. Format: functional.
Details: not given
For the compound `Cc1c(C)c2c(c(C)c1OC(=O)CCC(=O)NC1CC(C)(C)N([O])C1(C)C)CCC(C)(C(=O)NC1CC(C)(C)N([O])C1(C)C)O2` (stereo not drawn), the inhibition was 20%.

System in another series: not listed separately
Kind of series: Cytotoxicity against human U937 cells assessed as reduction in cell viability after 72 hrs by MTT assay. It counts as functional, cell-based. Particulars: U-937, 72 h.
With `Cc1c(C)c2c(c(C)c1OC(=O)CCC(=O)NC1CC(C)(C)N([O])C1(C)C)CCC(C)(C(=O)NC1CC(C)(C)N([O])C1(C)C)O2` (stereo not drawn), the IC50 was 75 µM.

The next series has as its system Salmonella typhimurium. Kind of series: Genotoxicity in Salmonella typhimurium TA102 harboring […] mutant assessed as frequency of reversion from histidine auxotrophy to prototrophy at 30 mM after 48 hrs by Ames test (reference value: 209 +/- 10 No _unit). Format: toxicity, organism-based. The following applies: salmonella enterica subsp. enterica serovar typhimurium, 30000 µM.
As for `Cc1c(C)c2c(c(C)c1OC(=O)CCC(=O)NC1CC(C)(C)N([O])C1(C)C)CCC(C)(C(=O)NC1CC(C)(C)N([O])C1(C)C)O2` (stereo not drawn), the Activity was 229.

System in the next series: not listed separately
Kind of series: Ratio of IC50 for human HEPG2 cells to concentration causing antioxidant activity in Salmonella typhimurium TA102 harboring […] mutant. Format: functional.
Details: not given
As for `Cc1c(C)c2c(c(C)c1OC(=O)CCC(=O)NC1CC(C)(C)N([O])C1(C)C)CCC(C)(C(=O)NC1CC(C)(C)N([O])C1(C)C)O2` (stereo not drawn), the Ratio is on record as 100 - 1000.

System in the next series: not listed separately
Put plainly: Ratio of IC50 for human MT4 cells to concentration causing antioxidant activity in Salmonella typhimurium TA102 harboring […] mutant. It counts as functional.
Details: not given
Turning to `Cc1c(C)c2c(c(C)c1OC(=O)CCC(=O)NC1CC(C)(C)N([O])C1(C)C)CCC(C)(C(=O)NC1CC(C)(C)N([O])C1(C)C)O2` (stereo not drawn), the Ratio is 100 - 1000.

System in another series: not listed separately
Put plainly: Ratio of IC50 for human RPMI8226 cells to concentration causing antioxidant activity in Salmonella typhimurium TA102 harboring […] mutant. It counts as functional, RPMI-8226.
Details: not given
As for `Cc1c(C)c2c(c(C)c1OC(=O)CCC(=O)NC1CC(C)(C)N([O])C1(C)C)CCC(C)(C(=O)NC1CC(C)(C)N([O])C1(C)C)O2` (stereo not drawn), the Ratio is listed as 100 - 1000.

System in another series: not listed separately
Kind of series: Cytotoxicity against hamster AG17-1 cells assessed as reduction in cell viability after 72 hrs by MTT assay. Format: toxicity, cell-based, Cricetulus griseus. Particulars: Chinese hamster.
On to `Cc1c(C)c2c(c(C)c1OC(=O)CCC(=O)NC1CC(C)(C)N([O])C1(C)C)CCC(C)(C(=O)NC1CC(C)(C)N([O])C1(C)C)O2` (stereo not drawn), for which the IC50 at 72 h turned out to be 166 µM.

System in another series: not listed separately
Kind of series: Cytotoxicity against human RPMI8226 cells assessed as reduction in cell viability at 300 uM after 72 hrs by MTT assay. Format: functional. Particulars: RPMI-8226, 72 h.
Take `Cc1c(C)c2c(c(C)c1OC(=O)CCC(=O)NC1CC(C)(C)N([O])C1(C)C)CCC(C)(C(=O)NC1CC(C)(C)N([O])C1(C)C)O2` (stereo not drawn): the inhibition at 300 µM worked out at 0%.

System in another series: not listed separately
Put plainly: Cytotoxicity against human CEM13 cells assessed as reduction in cell viability at 300 uM after 72 hrs by MTT assay. It counts as functional. Particulars: CEM13, 72 h.
As to `Cc1c(C)c2c(c(C)c1OC(=O)CCC(=O)NC1CC(C)(C)N([O])C1(C)C)CCC(C)(C(=O)NC1CC(C)(C)N([O])C1(C)C)O2` (stereo not drawn), the inhibition at 300 µM was 34%.

System in a further series: not listed separately
Kind of series: Cytotoxicity against human HepG2 cells assessed as reduction in cell viability at 300 uM after 72 hrs by MTT assay. The following applies: HepG2, 72 h. Format: functional.
Regarding `Cc1c(C)c2c(c(C)c1OC(=O)CCC(=O)NC1CC(C)(C)N([O])C1(C)C)CCC(C)(C(=O)NC1CC(C)(C)N([O])C1(C)C)O2` (stereo not drawn), the inhibition at 300 µM amounted to 15%.

System in a further series: not listed separately
Put plainly: Cytotoxicity against mouse LMTK cells assessed as reduction in cell viability at 300 uM after 72 hrs by MTT assay. Format: toxicity. The following applies: read-out: INH.
Take `Cc1c(C)c2c(c(C)c1OC(=O)CCC(=O)NC1CC(C)(C)N([O])C1(C)C)CCC(C)(C(=O)NC1CC(C)(C)N([O])C1(C)C)O2` (stereo not drawn): the cytotoxicity at 72 h, 300 µM came to 10%.

System in the next series: not listed separately
Put plainly: Cytotoxicity against mouse LMTK cells assessed as reduction in cell viability after 72 hrs by MTT assay. It counts as toxicity.
Details: not given
On to `Cc1c(C)c2c(c(C)c1OC(=O)CCC(=O)NC1CC(C)(C)N([O])C1(C)C)CCC(C)(C(=O)NC1CC(C)(C)N([O])C1(C)C)O2` (stereo not drawn), for which the IC50 at 72 h was greater than 300 µM.

The test system of a further series is Salmonella enterica subsp. enterica serovar Typhimurium. Put plainly: Antioxidant activity in Salmonella typhimurium TA102 harboring […] mutant assessed as inhibition of t-BuO2H-dependant mutant formation at 0.3 uM preincubated with compound followed by t-BuO2H addition after 48 hrs by Ames test. Format: functional.
Details: not given
With `Cc1c(C)c2c(c(C)c1OC(=O)CCC(=O)NC1CC(C)(C)N([O])C1(C)C)CCC(C)(C(=O)NC1CC(C)(C)N([O])C1(C)C)O2` (stereo not drawn), the inhibition is 22%.
